Laboratory results published in publication PMC3597455 (International Journal of Oncology, 2013).

How the values were obtained:
GPC3-specific CTLs = details: without an autoimmune response; cited from earlier work
[1] = system: RMA-S pulsed with mGPC3-1 peptide; test: IFN-γ ELISPOT of mGPC3-1 peptide-specific CTL line against peptide-pulsed RMA-S; format: cell-based, mouse; details: CTL line 1×10^5, RMA-S 5×10^4 pulsed with 10 μg/ml peptide, 20 h
[2] = system: RMA-S pulsed with mGPC3-1 peptide; test: Cytotoxicity assay; format: cell-based, mouse; details: mGPC3-1-specific CTL line against RMA-S pulsed with mGPC3-1 peptide; calcein AM, 4 h; non-pulsed RMA-S 2.2%
CD8-positive cells = test: IFN-γ ELISPOT after mGPC3-1 peptide vaccine in STAM mice; format: in vivo, STAM mice C57BL/6N-NASH; details: STAM mice immunized seven times with mGPC3-1 peptide vaccine; CD8-positive cells against RMA-S pulsed with mGPC3-1 peptide; n=3

Row | Sequence | induction of GPC3-specific CTLs (in words) (GPC3-specific CTLs) | IFN-γ release of CTL line to peptide-pulsed vs non-pulsed RMA-S (in words) [1] | % cytotoxicity [2] [%] | average number of spots (IFN-γ ELISPOT) (CD8-positive cells) [spots]
1 | EYILSLEEL [GPC3_298–306] | can induce GPC3-specific CTLs | – | – | –
2 | FVGEFFTDV [GPC3_144–152] | can induce GPC3-specific CTLs | – | – | –
3 | AMFKNNYPSL [mGPC3-1] | – | clearly released more IFN-γ | 16.4 | 100±74.3
